Tests used:
[1] = target: T1, 5-hydroxytryptamine receptor 6 (Homo sapiens, UniProt P50406); assay: Displacement of [3H]LSD from human 5HT6 receptor expressed in HEK293 cells; type: cell-based
[2] = target: T2, 5-hydroxytryptamine receptor 1A (Homo sapiens, UniProt P08908); assay: Displacement of [3H]8-OH-DPAT from human 5HT1A receptor expressed in cells; type: cell-based
T2 sequence (P08908 whole entry): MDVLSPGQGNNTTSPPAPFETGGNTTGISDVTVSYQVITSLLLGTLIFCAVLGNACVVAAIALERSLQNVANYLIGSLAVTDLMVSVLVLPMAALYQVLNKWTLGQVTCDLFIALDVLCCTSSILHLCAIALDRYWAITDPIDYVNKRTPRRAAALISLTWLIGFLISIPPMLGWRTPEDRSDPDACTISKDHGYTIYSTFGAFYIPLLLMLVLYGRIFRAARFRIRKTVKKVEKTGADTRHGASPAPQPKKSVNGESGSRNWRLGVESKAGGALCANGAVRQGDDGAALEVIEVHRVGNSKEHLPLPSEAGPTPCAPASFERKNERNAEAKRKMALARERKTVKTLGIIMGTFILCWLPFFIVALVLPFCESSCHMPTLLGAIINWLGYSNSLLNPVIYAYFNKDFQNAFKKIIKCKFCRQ

[3] = target: 5-hydroxytryptamine receptor 2A (Homo sapiens, UniProt P28223); assay: Displacement of [3H]ketanserin from human 5HT2A receptor expressed in cells; type: cell-based
[4] = target: T3, 5-hydroxytryptamine receptor 2C (Homo sapiens, UniProt P28335); assay: Displacement of [3H]mesulergine from human 5HT2C receptor expressed in cells; type: cell-based
T3 sequence (P28335 whole entry): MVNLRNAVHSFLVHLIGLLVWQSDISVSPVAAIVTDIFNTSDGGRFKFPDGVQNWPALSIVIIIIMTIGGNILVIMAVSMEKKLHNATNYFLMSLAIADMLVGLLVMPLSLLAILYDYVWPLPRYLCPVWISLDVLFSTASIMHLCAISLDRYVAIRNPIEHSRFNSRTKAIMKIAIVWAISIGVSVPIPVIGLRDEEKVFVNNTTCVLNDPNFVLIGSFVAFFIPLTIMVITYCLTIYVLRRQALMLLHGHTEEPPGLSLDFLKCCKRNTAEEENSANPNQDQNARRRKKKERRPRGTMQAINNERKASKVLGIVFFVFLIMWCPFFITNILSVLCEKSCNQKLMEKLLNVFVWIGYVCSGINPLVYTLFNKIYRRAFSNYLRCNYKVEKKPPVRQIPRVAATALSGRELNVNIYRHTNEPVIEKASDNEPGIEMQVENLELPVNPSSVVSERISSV

[5] = target: 5-hydroxytryptamine receptor 7 (Homo sapiens, UniProt P34969); assay: Displacement of [3H]LSD from human 5HT7 receptor expressed in cells; type: cell-based
D(2) dopamine receptor = D(2) dopamine receptor (Homo sapiens, UniProt P14416); assay: Displacement of [3H]spiperone from human dopamine D2 receptor expressed in cells; type: cell-based
D(3) dopamine receptor = D(3) dopamine receptor (Homo sapiens, UniProt P35462); assay: Displacement of [3H]spiperone from human dopamine D3 receptor expressed in cells; type: cell-based
D(4) dopamine receptor = target: T4, D(4) dopamine receptor (Homo sapiens, UniProt P21917); assay: Displacement of [3H]spiperone from human dopamine D4 receptor expressed in cells; type: cell-based
T4 sequence (P21917 whole entry): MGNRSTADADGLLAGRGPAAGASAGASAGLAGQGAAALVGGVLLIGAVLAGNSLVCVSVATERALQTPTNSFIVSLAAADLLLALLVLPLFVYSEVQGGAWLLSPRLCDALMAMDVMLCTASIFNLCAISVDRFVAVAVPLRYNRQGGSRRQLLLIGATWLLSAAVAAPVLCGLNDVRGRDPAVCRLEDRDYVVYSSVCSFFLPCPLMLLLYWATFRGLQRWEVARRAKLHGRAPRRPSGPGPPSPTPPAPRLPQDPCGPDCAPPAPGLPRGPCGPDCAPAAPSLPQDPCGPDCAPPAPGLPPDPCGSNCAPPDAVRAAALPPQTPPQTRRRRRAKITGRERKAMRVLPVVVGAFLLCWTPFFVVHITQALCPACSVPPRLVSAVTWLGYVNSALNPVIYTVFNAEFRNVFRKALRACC

[6] = target: T1, 5-hydroxytryptamine receptor 6; assay: Binding affinity to 5HT6 receptor
[7] = target: T1, 5-hydroxytryptamine receptor 6; assay: Antagonist activity at human 5HT6 receptor expressed in HeLa cells assessed as inhibition of 5-HT-stimulated cAMP accumulation; type: functional, cell-based
[8] = Lipophilicity, log D of the compound; type: physicochemical; conditions: octanol/water

T1 sequence (P50406 whole entry): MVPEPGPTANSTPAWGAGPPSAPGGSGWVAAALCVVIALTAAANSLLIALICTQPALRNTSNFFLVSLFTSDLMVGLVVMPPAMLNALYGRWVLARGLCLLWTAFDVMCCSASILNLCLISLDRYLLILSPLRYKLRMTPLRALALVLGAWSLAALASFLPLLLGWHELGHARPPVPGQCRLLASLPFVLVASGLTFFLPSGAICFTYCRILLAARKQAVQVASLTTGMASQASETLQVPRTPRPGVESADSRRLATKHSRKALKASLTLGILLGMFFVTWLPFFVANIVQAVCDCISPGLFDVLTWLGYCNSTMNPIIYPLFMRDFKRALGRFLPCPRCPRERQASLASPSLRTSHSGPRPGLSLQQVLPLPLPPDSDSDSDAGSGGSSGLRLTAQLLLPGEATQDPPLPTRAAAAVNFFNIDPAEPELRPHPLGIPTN
5-hydroxytryptamine receptor 2A, sequence (P28223 whole entry): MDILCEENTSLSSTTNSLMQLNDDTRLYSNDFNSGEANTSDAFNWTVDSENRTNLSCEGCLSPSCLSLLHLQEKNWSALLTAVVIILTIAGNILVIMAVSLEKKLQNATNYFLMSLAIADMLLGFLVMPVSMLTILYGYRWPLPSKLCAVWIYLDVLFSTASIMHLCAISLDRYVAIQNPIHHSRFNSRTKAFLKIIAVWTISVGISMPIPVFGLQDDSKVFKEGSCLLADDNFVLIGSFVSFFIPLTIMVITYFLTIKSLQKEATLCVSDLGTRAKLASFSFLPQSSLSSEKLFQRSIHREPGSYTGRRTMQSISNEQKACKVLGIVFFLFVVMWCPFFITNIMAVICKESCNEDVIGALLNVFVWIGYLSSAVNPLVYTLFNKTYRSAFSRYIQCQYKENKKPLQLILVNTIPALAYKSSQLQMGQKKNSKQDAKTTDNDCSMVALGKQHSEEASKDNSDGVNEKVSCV
5-hydroxytryptamine receptor 7, sequence (P34969 whole entry): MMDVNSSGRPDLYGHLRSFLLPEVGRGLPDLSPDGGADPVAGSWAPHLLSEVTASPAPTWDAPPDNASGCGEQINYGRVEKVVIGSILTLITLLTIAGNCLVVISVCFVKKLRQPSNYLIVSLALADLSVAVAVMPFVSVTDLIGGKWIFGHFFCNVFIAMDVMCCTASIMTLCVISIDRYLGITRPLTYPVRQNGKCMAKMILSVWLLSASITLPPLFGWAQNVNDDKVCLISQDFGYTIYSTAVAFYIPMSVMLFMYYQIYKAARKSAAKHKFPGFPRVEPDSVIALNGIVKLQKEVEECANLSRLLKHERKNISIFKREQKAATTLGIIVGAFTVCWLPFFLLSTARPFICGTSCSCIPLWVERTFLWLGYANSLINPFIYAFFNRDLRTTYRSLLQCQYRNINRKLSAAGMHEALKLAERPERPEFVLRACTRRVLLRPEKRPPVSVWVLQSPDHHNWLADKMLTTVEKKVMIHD
D(3) dopamine receptor, sequence (P35462 whole entry): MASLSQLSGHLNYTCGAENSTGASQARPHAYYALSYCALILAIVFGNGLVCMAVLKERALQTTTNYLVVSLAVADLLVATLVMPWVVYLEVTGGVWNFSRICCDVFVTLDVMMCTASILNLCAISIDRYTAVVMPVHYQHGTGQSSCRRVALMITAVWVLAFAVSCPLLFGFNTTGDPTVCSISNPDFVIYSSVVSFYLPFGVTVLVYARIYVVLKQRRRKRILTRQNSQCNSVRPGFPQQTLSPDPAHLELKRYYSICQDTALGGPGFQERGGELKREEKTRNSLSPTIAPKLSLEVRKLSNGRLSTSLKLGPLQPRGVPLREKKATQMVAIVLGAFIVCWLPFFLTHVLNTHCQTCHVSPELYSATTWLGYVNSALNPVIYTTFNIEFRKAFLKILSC
D(2) dopamine receptor, sequence (P14416 whole entry): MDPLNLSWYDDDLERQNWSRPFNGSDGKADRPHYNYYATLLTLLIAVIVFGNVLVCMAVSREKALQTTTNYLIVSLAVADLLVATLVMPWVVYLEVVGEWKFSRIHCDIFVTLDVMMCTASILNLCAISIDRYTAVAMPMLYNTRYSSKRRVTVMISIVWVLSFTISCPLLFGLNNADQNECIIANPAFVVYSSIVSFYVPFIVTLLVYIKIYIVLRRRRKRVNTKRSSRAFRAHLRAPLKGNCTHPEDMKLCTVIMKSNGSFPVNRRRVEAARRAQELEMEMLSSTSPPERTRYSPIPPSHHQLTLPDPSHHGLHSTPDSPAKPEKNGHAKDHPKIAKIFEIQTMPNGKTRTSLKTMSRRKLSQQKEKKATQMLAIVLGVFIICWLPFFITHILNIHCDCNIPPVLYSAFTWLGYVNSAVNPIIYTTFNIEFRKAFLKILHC

Cc1ccc(S(=O)(=O)N2CCC(=O)c3c(N4CCN(C)CC4)cccc32)cc1
IC50 [1]: 129 nM

Cc1ccc2c(c1N1CCN(C)CC1)C(=O)CC(C)N2S(=O)(=O)c1ccc2ccccc2c1 (stereo not given)
IC50 [1]: 15 nM

C[C@H]1CC(=O)c2ccc(N3CCN(C)CC3)cc2N1S(=O)(=O)c1ccc2ccccc2c1
IC50 [1]: 17 nM

CN1CCN(c2cccc3c2C(=O)CCN3S(=O)(=O)c2ccc3ccccc3c2)CC1
IC50 [1]: 61 nM
IC50 [2]: 333 nM
IC50 [3]: 760 nM
IC50 [4]: 438 nM
IC50 [5]: 620 nM
IC50 (D(2) dopamine receptor): > 10000 nM
IC50 (D(3) dopamine receptor): 2920 nM
IC50 (D(4) dopamine receptor): 1790 nM

Cc1c(S(=O)(=O)N2CCC(=O)c3ccc(N4CCN(C)CC4)cc32)sc2ccc(Cl)cc12
IC50 [1]: 419 nM

CN1CCN(c2cc(Br)cc3c2C(=O)CCN3S(=O)(=O)c2ccc3ccccc3c2)CC1
IC50 [1]: 58 nM

CN1CCN(c2ccc3c(c2)C(=O)CCN3S(=O)(=O)c2ccc3ccccc3c2)CC1
IC50 [1]: 311 nM

CSc1nn2c(N3CCNCC3)c3c(nc2c1S(=O)(=O)c1ccccc1)CCC3
Ki [6]: 2.51 nM

CN1CCN(c2ccc3c(c2)N(S(=O)(=O)c2ccc4ccccc4c2)CCC3=O)CC1
IC50 [1]: 26 nM
IC50 [2]: 672 nM
IC50 [3]: 366 nM
IC50 [4]: 5190 nM
IC50 [5]: 143 nM
IC50 (D(2) dopamine receptor): > 10000 nM
IC50 (D(3) dopamine receptor): 1300 nM
IC50 (D(4) dopamine receptor): 3610 nM
IC50 [7]: 188 nM

CC1CC(=O)c2c(N3CCNCC3)cccc2N1S(=O)(=O)c1ccc2ccccc2c1 (stereo not given)
IC50 [1]: 42 nM

Cc1cc(N2CCN(C)CC2)c2c(c1)N(S(=O)(=O)c1ccc3ccccc3c1)C(C)CC2=O (stereo not given)
IC50 [1]: 11 nM
IC50 [2]: 1230 nM
IC50 [3]: 704 nM
IC50 [4]: 19 nM
IC50 [5]: > 10000 nM
IC50 (D(2) dopamine receptor): 1780 nM
IC50 (D(3) dopamine receptor): 180 nM
IC50 (D(4) dopamine receptor): > 10000 nM

CN1CCN(c2cc(Cl)cc3c2C(=O)CCN3S(=O)(=O)c2ccc3ccccc3c2)CC1
IC50 [1]: 47 nM

CCC1CC(=O)c2c(N3CCN(C)CC3)cccc2N1S(=O)(=O)c1ccc2ccccc2c1 (stereo not given)
IC50 [1]: 9 nM
IC50 [2]: 999 nM
IC50 [3]: 455 nM
IC50 [4]: 4 nM
IC50 [5]: > 10000 nM
IC50 (D(2) dopamine receptor): > 1000 nM
IC50 (D(3) dopamine receptor): 623 nM
IC50 (D(4) dopamine receptor): > 10000 nM

C[C@H]1CC(=O)c2c(N3CCN(C)CC3)cccc2N1S(=O)(=O)c1ccc2ccccc2c1
IC50 [1]: 7 nM

COc1cc2c(cc1N1CCN(C)CC1)N(S(=O)(=O)c1ccc3ccccc3c1)CCC2=O
IC50 [1]: 165 nM

CC1CC(=O)c2c(N3CCN(C)CC3)cccc2N1S(=O)(=O)c1ccc2ccccc2c1 (stereo not given)
IC50 [1]: 8 nM
IC50 [2]: 1210 nM
IC50 [3]: 48 nM
IC50 [4]: 30 nM
IC50 [5]: 2010 nM
IC50 (D(2) dopamine receptor): > 10000 nM
IC50 (D(3) dopamine receptor): 482 nM
IC50 (D(4) dopamine receptor): 5520 nM
logD [8]: 3.6

C[C@@H]1CC(=O)c2c(N3CCN(C)CC3)cccc2N1S(=O)(=O)c1ccc2ccccc2c1
IC50 [1]: 353 nM

COc1ccc(NS(=O)(=O)c2sc3ccc(Cl)cc3c2C)cc1N1CCN(C)CC1
logD [8]: 2.99

C[C@@H]1CC(=O)c2ccc(N3CCN(C)CC3)cc2N1S(=O)(=O)c1ccc2ccccc2c1
IC50 [1]: 43 nM

CC1CC(=O)c2ccc(N3CCN(C)CC3)cc2N1S(=O)(=O)c1ccc2ccccc2c1 (stereo not given)
IC50 [1]: 28 nM
IC50 [2]: 1600 nM
IC50 [3]: 1460 nM
IC50 [4]: 558 nM
IC50 [5]: > 10000 nM
IC50 (D(2) dopamine receptor): 136 nM
IC50 (D(3) dopamine receptor): 1520 nM
IC50 (D(4) dopamine receptor): > 10000 nM
logD [8]: 3.2

— ChEMBL document CHEMBL1641464, “1-(Arylsulfonyl)-2,3-dihydro-1H-quinolin-4-one derivatives as 5-HT(6) serotonin receptor ligands” (Bioorg Med Chem Lett, 2011)
